According to ChEMBL document CHEMBL5715260, “Selectivity Literature for EUbOPEN Chemogenomic Library” (2024):

Columns and labels:
[1] = biological target: T1, Nuclear receptor subfamily 2 group C member 1 (Homo sapiens) (UniProt P13056); experiment: Selectivity interaction (Reporter gene assay) EUB0000572aCl NR2C1; design: recommended concentration 3 uM; details: screened at recom. conc., Selectivity number of off-targets 2.0, Selectivity number of targets 5.0, Source Knowledge inhouse
T1 sequence (whole entry): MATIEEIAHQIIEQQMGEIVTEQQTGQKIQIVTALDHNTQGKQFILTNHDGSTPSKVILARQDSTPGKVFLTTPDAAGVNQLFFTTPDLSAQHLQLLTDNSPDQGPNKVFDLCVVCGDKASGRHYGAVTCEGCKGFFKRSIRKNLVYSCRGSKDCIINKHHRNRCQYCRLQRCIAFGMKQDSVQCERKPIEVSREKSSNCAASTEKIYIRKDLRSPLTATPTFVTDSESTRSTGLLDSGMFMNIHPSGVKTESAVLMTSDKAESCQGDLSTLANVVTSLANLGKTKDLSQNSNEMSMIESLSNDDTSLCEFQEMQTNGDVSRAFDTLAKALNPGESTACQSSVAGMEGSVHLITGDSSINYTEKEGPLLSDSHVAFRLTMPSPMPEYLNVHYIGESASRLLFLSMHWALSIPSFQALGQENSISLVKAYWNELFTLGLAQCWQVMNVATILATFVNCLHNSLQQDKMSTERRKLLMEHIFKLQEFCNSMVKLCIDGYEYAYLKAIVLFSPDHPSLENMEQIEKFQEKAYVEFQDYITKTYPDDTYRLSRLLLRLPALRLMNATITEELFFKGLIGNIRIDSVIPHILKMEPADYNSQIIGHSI

[2] = biological target: T2, Hepatocyte nuclear factor 4-alpha (Homo sapiens) (UniProt P41235); experiment: Selectivity interaction (Reporter gene assay) EUB0000572aCl HNF4A; design: recommended concentration 3 uM
T2 sequence (whole entry): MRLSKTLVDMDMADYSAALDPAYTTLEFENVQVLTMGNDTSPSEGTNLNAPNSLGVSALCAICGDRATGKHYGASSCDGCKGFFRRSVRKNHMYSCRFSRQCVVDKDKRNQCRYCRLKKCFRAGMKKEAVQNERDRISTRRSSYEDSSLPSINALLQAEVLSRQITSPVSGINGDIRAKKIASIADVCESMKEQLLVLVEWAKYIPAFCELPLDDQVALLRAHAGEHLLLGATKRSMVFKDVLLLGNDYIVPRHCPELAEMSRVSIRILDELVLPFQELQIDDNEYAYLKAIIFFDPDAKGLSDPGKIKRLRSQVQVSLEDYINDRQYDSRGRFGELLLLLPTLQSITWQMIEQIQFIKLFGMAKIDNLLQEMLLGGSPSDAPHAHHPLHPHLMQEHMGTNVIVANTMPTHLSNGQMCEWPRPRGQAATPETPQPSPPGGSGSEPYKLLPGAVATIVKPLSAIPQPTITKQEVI

[3] = biological target: T3, Retinoic acid receptor RXR-alpha (Homo sapiens) (UniProt P19793); experiment: Selectivity interaction (Reporter gene assay) EUB0000572aCl RXRA; design: recommended concentration 3 uM; details: reference bexarotene 1 uM, Selectivity number of off-targets 0.0, Selectivity number of targets 1.0, Source Knowledge inhouse
T3 sequence (whole entry): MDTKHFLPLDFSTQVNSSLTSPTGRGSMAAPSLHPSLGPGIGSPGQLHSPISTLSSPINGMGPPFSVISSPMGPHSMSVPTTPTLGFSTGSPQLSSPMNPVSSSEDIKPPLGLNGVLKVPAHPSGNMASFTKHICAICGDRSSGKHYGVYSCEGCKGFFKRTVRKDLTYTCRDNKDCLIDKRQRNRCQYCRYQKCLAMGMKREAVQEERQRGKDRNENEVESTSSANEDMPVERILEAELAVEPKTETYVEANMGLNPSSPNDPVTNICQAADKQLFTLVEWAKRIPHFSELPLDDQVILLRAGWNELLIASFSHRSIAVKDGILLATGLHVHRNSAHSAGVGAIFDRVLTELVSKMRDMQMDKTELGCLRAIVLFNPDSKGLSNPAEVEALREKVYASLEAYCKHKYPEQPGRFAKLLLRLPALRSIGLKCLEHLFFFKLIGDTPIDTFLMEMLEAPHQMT

[4] = biological target: Steroidogenic factor 1 (Homo sapiens) (UniProt Q13285); experiment: Selectivity interaction (Reporter gene assay) EUB0000572aCl NR5A1; design: recommended concentration 3 uM
Steroidogenic factor 1 (Homo sapiens), sequence (Q13285 whole entry): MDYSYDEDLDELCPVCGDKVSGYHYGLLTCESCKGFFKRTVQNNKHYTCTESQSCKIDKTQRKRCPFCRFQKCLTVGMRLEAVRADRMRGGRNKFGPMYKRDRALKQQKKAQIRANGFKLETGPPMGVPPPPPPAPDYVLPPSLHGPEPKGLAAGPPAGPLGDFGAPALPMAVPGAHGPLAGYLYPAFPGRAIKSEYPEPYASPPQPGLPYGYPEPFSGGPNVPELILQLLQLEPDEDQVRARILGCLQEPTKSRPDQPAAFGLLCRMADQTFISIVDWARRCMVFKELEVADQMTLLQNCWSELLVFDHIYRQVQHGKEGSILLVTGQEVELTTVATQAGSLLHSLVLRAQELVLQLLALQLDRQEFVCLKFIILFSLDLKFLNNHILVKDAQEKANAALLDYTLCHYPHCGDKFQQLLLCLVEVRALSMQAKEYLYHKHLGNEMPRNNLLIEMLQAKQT

[5] = biological target: T4, Alpha trans-inducing protein (Human alphaherpesvirus 1) (UniProt A0A5J6DW59); experiment: Selectivity interaction (Reporter gene assay) EUB0000572aCl UL48; design: recommended concentration 3 uM
T4 sequence (A0A5J6DW59 as listed by the source): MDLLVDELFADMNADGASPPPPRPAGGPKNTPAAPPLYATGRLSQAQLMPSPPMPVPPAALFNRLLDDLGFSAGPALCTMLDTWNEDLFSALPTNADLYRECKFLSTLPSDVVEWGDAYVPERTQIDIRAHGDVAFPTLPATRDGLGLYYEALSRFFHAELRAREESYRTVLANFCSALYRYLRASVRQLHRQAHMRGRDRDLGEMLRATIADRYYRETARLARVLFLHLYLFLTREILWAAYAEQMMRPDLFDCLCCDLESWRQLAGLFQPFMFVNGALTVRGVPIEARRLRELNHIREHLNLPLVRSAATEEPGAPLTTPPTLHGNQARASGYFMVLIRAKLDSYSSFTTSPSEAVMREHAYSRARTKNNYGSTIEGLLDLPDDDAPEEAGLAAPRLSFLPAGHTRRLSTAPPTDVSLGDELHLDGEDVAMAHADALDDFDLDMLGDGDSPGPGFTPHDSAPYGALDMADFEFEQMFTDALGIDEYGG

[6] = biological target: Nuclear receptor subfamily 4immunitygroup A member 1 (Homo sapiens) (UniProt P22736); experiment: Selectivity interaction (Reporter gene assay) EUB0000572aCl NR4A1; design: recommended concentration 3 uM
Nuclear receptor subfamily 4immunitygroup A member 1 (Homo sapiens), sequence (P22736 whole entry): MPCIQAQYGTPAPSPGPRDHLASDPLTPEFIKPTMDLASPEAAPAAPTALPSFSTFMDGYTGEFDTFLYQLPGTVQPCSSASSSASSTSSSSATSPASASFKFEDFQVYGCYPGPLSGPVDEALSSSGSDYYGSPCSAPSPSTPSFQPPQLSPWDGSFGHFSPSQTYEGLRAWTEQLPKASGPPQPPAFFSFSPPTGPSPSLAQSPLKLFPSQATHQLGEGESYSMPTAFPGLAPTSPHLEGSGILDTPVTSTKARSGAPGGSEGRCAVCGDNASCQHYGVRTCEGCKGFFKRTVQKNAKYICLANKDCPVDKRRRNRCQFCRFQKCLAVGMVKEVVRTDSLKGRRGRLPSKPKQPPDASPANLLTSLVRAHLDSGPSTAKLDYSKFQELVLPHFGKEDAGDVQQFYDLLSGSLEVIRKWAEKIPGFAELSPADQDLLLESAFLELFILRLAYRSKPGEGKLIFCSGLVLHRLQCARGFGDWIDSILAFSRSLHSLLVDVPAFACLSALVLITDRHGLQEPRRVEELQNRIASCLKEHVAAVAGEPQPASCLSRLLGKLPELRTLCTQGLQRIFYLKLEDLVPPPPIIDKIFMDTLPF

[7] = biological target: Nuclear receptor subfamily 2 group E member 1 (Homo sapiens) (UniProt Q9Y466); experiment: Selectivity interaction (Reporter gene assay) EUB0000572aCl NR2E1; design: recommended concentration 3 uM; details: screened at recom. conc., Selectivity number of off-targets 2.0, Selectivity number of targets 5.0, Source Knowledge inhouse
Nuclear receptor subfamily 2 group E member 1 (Homo sapiens), sequence (Q9Y466 whole entry): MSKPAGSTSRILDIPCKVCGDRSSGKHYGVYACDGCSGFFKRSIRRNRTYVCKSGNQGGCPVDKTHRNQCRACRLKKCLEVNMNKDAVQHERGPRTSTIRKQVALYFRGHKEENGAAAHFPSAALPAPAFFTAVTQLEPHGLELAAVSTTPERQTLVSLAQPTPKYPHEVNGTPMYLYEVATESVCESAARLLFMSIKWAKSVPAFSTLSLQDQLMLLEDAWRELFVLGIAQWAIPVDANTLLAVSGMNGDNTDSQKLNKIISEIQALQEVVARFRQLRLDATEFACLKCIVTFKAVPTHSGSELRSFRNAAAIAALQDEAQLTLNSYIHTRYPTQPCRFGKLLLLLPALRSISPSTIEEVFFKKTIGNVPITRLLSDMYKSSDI

[8] = biological target: Steroidogenic factor 1 (Homo sapiens) (UniProt Q13285); experiment: Selectivity interaction (Reporter gene assay) EUB0000576a NR5A1; design: recommended concentration 1 uM
[9] = biological target: Nuclear receptor subfamily 2 group E member 1 (Homo sapiens) (UniProt Q9Y466); experiment: Selectivity interaction (Reporter gene assay) EUB0000576a NR2E1; design: recommended concentration 1 uM
[10] = biological target: T1, Nuclear receptor subfamily 2 group C member 1 (Homo sapiens); experiment: Selectivity interaction (Reporter gene assay) EUB0000576a NR2C1; design: recommended concentration 1 uM
[11] = biological target: T2, Hepatocyte nuclear factor 4-alpha (Homo sapiens); experiment: Selectivity interaction (Reporter gene assay) EUB0000576a HNF4A; design: recommended concentration 1 uM
[12] = biological target: T4, Alpha trans-inducing protein (Human alphaherpesvirus 1); experiment: Selectivity interaction (Reporter gene assay) EUB0000576a UL48; design: recommended concentration 1 uM
[13] = biological target: T3, Retinoic acid receptor RXR-alpha (Homo sapiens); experiment: Selectivity interaction (Reporter gene assay) EUB0000576a RXRA; design: recommended concentration 1 uM; details: reference bexarotene 1 uM, Selectivity number of off-targets 0.0, Selectivity number of targets 1.0, Source Knowledge inhouse
[14] = biological target: Nuclear receptor subfamily 4immunitygroup A member 1 (Homo sapiens) (UniProt P22736); experiment: Selectivity interaction (Reporter gene assay) EUB0000576a NR4A1; design: recommended concentration 1 uM
[15] = biological target: T3, Retinoic acid receptor RXR-alpha (Homo sapiens); experiment: Selectivity interaction (Reporter gene assay) EUB0000574a RXRA; design: recommended concentration 10 uM; details: reference bexarotene 1 uM, Selectivity number of off-targets 0.0, Selectivity number of targets 1.0, Source Knowledge inhouse
[16] = biological target: T2, Hepatocyte nuclear factor 4-alpha (Homo sapiens); experiment: Selectivity interaction (Reporter gene assay) EUB0000574a HNF4A; design: recommended concentration 10 uM
[17] = biological target: Nuclear receptor subfamily 2 group E member 1 (Homo sapiens) (UniProt Q9Y466); experiment: Selectivity interaction (Reporter gene assay) EUB0000574a NR2E1; design: recommended concentration 10 uM
[18] = biological target: Nuclear receptor subfamily 4immunitygroup A member 1 (Homo sapiens) (UniProt P22736); experiment: Selectivity interaction (Reporter gene assay) EUB0000574a NR4A1; design: recommended concentration 10 uM
[19] = biological target: T4, Alpha trans-inducing protein (Human alphaherpesvirus 1); experiment: Selectivity interaction (Reporter gene assay) EUB0000574a UL48; design: recommended concentration 10 uM
[20] = biological target: Steroidogenic factor 1 (Homo sapiens) (UniProt Q13285); experiment: Selectivity interaction (Reporter gene assay) EUB0000574a NR5A1; design: recommended concentration 10 uM
[21] = biological target: T1, Nuclear receptor subfamily 2 group C member 1 (Homo sapiens); experiment: Selectivity interaction (Reporter gene assay) EUB0000574a NR2C1; design: recommended concentration 10 uM
[22] = biological target: Nuclear receptor subfamily 2 group E member 1 (Homo sapiens) (UniProt Q9Y466); experiment: Selectivity interaction (Reporter gene assay) EUB0000582a NR2E1; design: recommended concentration 1 uM
[23] = biological target: Nuclear receptor subfamily 4immunitygroup A member 1 (Homo sapiens) (UniProt P22736); experiment: Selectivity interaction (Reporter gene assay) EUB0000582a NR4A1; design: recommended concentration 1 uM
[24] = biological target: T2, Hepatocyte nuclear factor 4-alpha (Homo sapiens); experiment: Selectivity interaction (Reporter gene assay) EUB0000582a HNF4A; design: recommended concentration 1 uM
[25] = biological target: T1, Nuclear receptor subfamily 2 group C member 1 (Homo sapiens); experiment: Selectivity interaction (Reporter gene assay) EUB0000582a NR2C1; design: recommended concentration 1 uM
[26] = biological target: Steroidogenic factor 1 (Homo sapiens) (UniProt Q13285); experiment: Selectivity interaction (Reporter gene assay) EUB0000582a NR5A1; design: recommended concentration 1 uM
[27] = biological target: T4, Alpha trans-inducing protein (Human alphaherpesvirus 1); experiment: Selectivity interaction (Reporter gene assay) EUB0000582a UL48; design: recommended concentration 1 uM
[28] = biological target: T3, Retinoic acid receptor RXR-alpha (Homo sapiens); experiment: Selectivity interaction (Reporter gene assay) EUB0000582a RXRA; design: recommended concentration 1 uM; details: reference bexarotene 1 uM, Selectivity number of off-targets 0.0, Selectivity number of targets 1.0, Source Knowledge inhouse

## O=C(O)Cc1cccc(OCCCN(Cc2cccc(C(F)(F)F)c2Cl)CC(c2ccccc2)c2ccccc2)c1
[1]
  Fold activation: 1.98
[2]
  Fold activation: 1.18
[3]
  Relative activation: 0.674%
[4]
  Fold activation: 1.13
[5]
  P-value: 2.13e-05
[6]
  Fold activation: 1.4
[7]
  Fold activation: 1.82

## CCOP(=O)(OCC)C(=Cc1cc(C(C)(C)C)c(O)c(C(C)(C)C)c1)P(=O)(OCC)OCC
[8]
  Fold activation: 1.01
[9]
  Remaining activity: 0.795
[10]
  Fold activation: 1.37
[11]
  Remaining activity: 0.935
[12]
  P-value: 0.0136
[13]
  Relative activation: 0.581%
[14]
  Remaining activity: 0.959

## CO[C@H]1/C=C/O[C@@]2(C)Oc3c(C)c(O)c4c(O)c(c(/C=N/N5CCN(C)CC5)c(O)c4c3C2=O)NC(=O)/C(C)=C\C=C\[C@H](C)[C@H](O)[C@@H](C)[C@@H](O)[C@@H](C)[C@H](OC(C)=O)[C@@H]1C
[15]
  Relative activation: 0.683%
[16]
  Fold activation: 1.04
[17]
  Fold activation: 1.33
[18]
  Fold activation: 1.04
[19]
  P-value: 0.000527
[20]
  Remaining activity: 0.952
[21]
  Fold activation: 1.14

## C=C1/C(=C\C=C2/CCC[C@]3(C)[C@@H]([C@H](C)/C=C/C=C/C(O)(CC)CC)CC[C@@H]23)C[C@@H](O)C[C@@H]1O
[22]
  Fold activation: 0.996
[23]
  Fold activation: 1.19
[24]
  Fold activation: 1.08
[25]
  Fold activation: 1.62
[26]
  Fold activation: 1.27
[27]
  P-value: 0.000219
[28]
  Relative activation: 0.643%
